Results: PMC5772982 (Molecular cell, 2017)
pKd: −log10 of the molar value.

Target: T1, PYL1 (Arabidopsis thaliana, UniProt Q8VZS8, S119A)
T1 sequence (Q8VZS8 2-221 S119A): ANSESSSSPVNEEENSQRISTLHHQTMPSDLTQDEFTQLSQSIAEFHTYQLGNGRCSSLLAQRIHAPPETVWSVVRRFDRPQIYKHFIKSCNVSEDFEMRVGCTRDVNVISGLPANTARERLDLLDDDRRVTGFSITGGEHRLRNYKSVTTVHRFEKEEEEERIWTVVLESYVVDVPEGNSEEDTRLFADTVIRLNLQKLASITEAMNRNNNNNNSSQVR
Assay: microscale thermophoresis
Type: binding

CC1=CC(=O)CC(C)(C)[C@@]1(O)/C=C/C(C)=C\C(=O)O [Abscisic Acid]
pKd: 3.66
